Molecular target: T1, RORγ (Homo sapiens, UniProt P51449)
T1 construct: expressed in transfected cells; host or cells: 293FT cells (Invitrogen), expression vector pFN26A (Promega)
T1 sequence (P51449 269-508 limits assumed): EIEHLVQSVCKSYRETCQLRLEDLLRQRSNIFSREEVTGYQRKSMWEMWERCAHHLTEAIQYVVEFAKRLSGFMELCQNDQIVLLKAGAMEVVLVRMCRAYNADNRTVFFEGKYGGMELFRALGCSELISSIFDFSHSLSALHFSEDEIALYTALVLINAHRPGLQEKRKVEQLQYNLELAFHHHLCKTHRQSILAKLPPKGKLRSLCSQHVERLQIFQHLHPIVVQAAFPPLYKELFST
Experiment: RORγ GAL4 reporter gene assay (luciferase readout, 293FT cells)
Assay type: cell-based
Details: inhibition of RORγ (GAL4-RORγ-LBD) in transfected 293FT cells, luciferase signal, overnight incubation; read-out: mean pIC50 (converted)
Experimental: RORγ GAL4 Reporter Gene Assay
Example inhibitors 1-47 were tested for their ability to inhibit RORγ activity in a RORγ GAL4 reporter gene assay. The assay procedure and results are described below.
RORγ GAL4 Reporter Gene Assay Description
A GAL4 one-hybrid reporter system employing luciferase readout was established to determine inhibition of RORγ in 293FT cells. The RORγ ligand-binding domain (LBD) was fused to the yeast GAL4 DNA binding domain (DBD) and placed under the control of the human cytomegalovirus (CMV) immediate early promoter, using expression vector pFN26A (Promega) and standard recombinant DNA cloning methods. To serve as a control in the assay, a similar vector was generated in which the GAL4-DBD was fused to Herpes simplex virus protein 16 (VP16), a constitutive transcriptional activator.
To monitor the inhibitory effect of compounds on RORγ, a transcriptional reporter construct was used. The pGL4.35 vector (Promega) contains nine copies of the GAL4 Upstream Activator Sequence (UAS). This sequence drives the transcription of the luciferase reporter gene luc2P in response to binding of a fusion protein containing the GAL4 DNA binding domain, as for example expressed by the GAL4-RORγ-LBD and GAL4-VP16 expression vectors described above. To allow a GAL4 fusion protein to drive the expression of the luciferase reporter, the pGL4.35 expression vector and the appropriate GAL4 fusion protein expression vector were bulk transfected in the 293FT cells using standard transfection techniques.
The day after transfection, cells were plated into 96 well plates, test compound was added and the plates were incubated overnight. Subsequently, the firefly luciferase activity was quantified using luciferase detection reagent and luminescence readout.
Detailed Assay Description
293FT cells (Invitrogen) were transfected with a GAL4 fusion protein expression vector (as described above) and the transcriptional reporter construct (pGL4.35, Promega). 60 μL of TransIT-293 transfection reagent (Mirus Bio) was added drop wise to 1500 μl Opti-MEM I Reduced Serum Medium (Invitrogen) and incubated at room temperature (RT) for 5 to 20 minutes. 1500 μL of this reagent mixture was added to 5 μg of GAL4 fusion protein expression vector and 5 μg of the transcriptional reporter construct, and incubated at RT for 20 minutes.
To harvest 293FT cells from a T75 flask, first the culture medium was taken off the cells. Subsequently, the cells were washed with Phosphate Buffered Saline (PBS) (Lonza), after which the PBS was removed. To dissociate the cells, 1 ml of TrypLE Express (Invitrogen) was added to the flask, followed by incubation at RT until the cells visually started to detach. Cells were collected in 5 mL of assay medium (DMEM culture medium (Lonza), 10% dialyzed FBS (Invitrogen) and Pen/Strep (Lonza)) to achieve a single cell suspension. 10×10^6 cells were spun down and re-suspended in 10 mL of assay medium. Subsequently, the cell suspension was added to the transfection mix tube, and then transferred as a whole to a T75 flask (Greiner), followed by overnight (16-24 hours) incubation at 37° C. and 5% CO2.
For compound screening, the cells were harvested (as described above) and counted. 13×10^6 cells were spun down, the supernatant was aspirated and the cells were re-suspended in 17.3 mL of assay medium obtaining a cell suspension of 0.75×10^6 cells/mL. 80 μL of cell suspension (60,000 cells) was plated per well into a white, flat bottom, tissue culture treated, 96 well screening plates (Greiner).
Test compounds were diluted, starting from a 10 mM dimethylsulf oxide (DMSO) stock solution, to serial dilutions in DMSO at 500× the final test concentration. Subsequently, these solutions were diluted to 5× the final test concentration in two 10-fold-dilution steps in assay medium. The final DMSO concentration of the 5× test compound solution was 1%. […]

Compound | IC50 [nM]
O=C(Cc1ccc(S(=O)(=O)CC2CC2)cc1)Nc1cc(-c2ccccc2)c(C(=O)c2ccccc2)s1 [Example 27, N-(5-benzoyl-4-phenylthiophen-2-yl)-2-(4-cyclopropylmethanesulfonylphenyl)acetamide] | ≤ 100
Cc1cc(NC(=O)Cc2ccc(S(=O)(=O)NC3CC3)cc2)ccc1-c1ccccc1OC(F)(F)F [Example 36, 2-[4-(cyclopropylsulfamoyl)phenyl]-N-{3-methyl-4-[2-(trifluoromethoxy)phenyl]phenyl}acetamide] | ≤ 100
O=C(Cc1ccc(S(=O)(=O)CC2CC2)cc1)Nc1ccc(-c2ncon2)cc1 [Example 47, 2-(4-cyclopropylmethanesulfonylphenyl)-N-[4-(1,2,4-oxadiazol-3-yl)phenyl]acetamide] | ≤ 1000
N#Cc1cccc(Oc2cc(NC(=O)Cc3ccc(S(=O)(=O)CC4CC4)cc3)ccc2-c2ccc(F)c(F)c2)c1 [Example 6, N-[3-(3-cyanophenoxy)-4-(3,4-difluorophenyl)phenyl]-2-(4-cyclopropylmethanesulfonylphenyl)acetamide] | ≤ 100
COc1cccc(Oc2cc(NC(=O)Cc3ccc(S(=O)(=O)NC4CC4)cc3)ccc2-n2cnc(C)c2)c1 [Example 14, 2-[4-(cyclopropylsulfamoyl)phenyl]-N-[3-(3-methoxyphenoxy)-4-(4-methyl-1H-imidazol-1-yl)phenyl]acetamide] | ≤ 1000
COc1cccc(Oc2cc(NC(=O)Cc3ccc(S(=O)(=O)NC4CC4)cc3)ccc2-c2cccc(F)c2)c1 [Example 16, 2-[4-(cyclopropylsulfamoyl)phenyl]-N-[4-(3-fluorophenyl)-3-(3-methoxyphenoxy)phenyl]acetamide] | ≤ 1000
O=C(Cc1ccc(S(=O)(=O)CC2CC2)cc1)Nc1cc(-c2cccnc2)cs1 [Example 25, 2-(4-cyclopropylmethanesulfonylphenyl)-N-[4-(pyridin-3-yl)thiophen-2-yl]acetamide] | ≤ 1000
Cc1nc(NC(=O)Cc2ccc(S(=O)(=O)NC3CC3)cc2)ccc1-c1ccccc1OC(F)(F)F [Example 34, 2-[4-(cyclopropylsulfamoyl)phenyl]-N-{6-methyl-5-[2-(trifluoromethoxy)phenyl]pyridin-2-yl}acetamide] | ≤ 100
O=C(Cc1ccc(S(=O)(=O)CC2CC2)cc1)Nc1ccc(-n2cccn2)cc1 [Example 44, 2-(4-cyclopropylmethanesulfonylphenyl)-N-[4-(1H-pyrazol-1-yl)phenyl]acetamide] | ≤ 1000
O=C(Cc1ccc(S(=O)(=O)NC2CC2)cc1)Nc1ccc(-c2cccc(F)c2)c(Oc2cccc(Cl)c2)c1 [Example 17, N-[3-(3-chlorophenoxy)-4-(3-fluorophenyl)phenyl]-2-[4-(cyclopropylsulfamoyl)phenyl]acetamide] | ≤ 1000
O=C(Cc1ccc(S(=O)(=O)CC2CC2)cc1)Nc1nc(-c2ccccc2)c(C(=O)c2ccccc2)s1 [Example 22, N-(5-benzoyl-4-phenyl-1,3-thiazol-2-yl)-2-(4-cyclopropylmethanesulfonylphenyl)acetamide] | ≤ 100
Cc1cc(NC(=O)Cc2ccc(S(=O)(=O)CC3CC3)cc2)ncc1-c1ccccc1OC(F)(F)F [Example 31, 2-(4-cyclopropylmethanesulfonylphenyl)-N-{4-methyl-5-[2-(trifluoromethoxy)phenyl]pyridin-2-yl}acetamide] | ≤ 100
O=C(Cc1ccc(S(=O)(=O)CC2CC2)cc1)Nc1ccc(-c2cc(F)cc(F)c2)c(Oc2cccc(Cl)c2)c1 [Example 8, N-[3-(3-chlorophenoxy)-4-(3,5-difluorophenyl)phenyl]-2-(4-cyclopropylmethanesulfonylphenyl)acetamide] | ≤ 100
O=C(Cc1ccc(S(=O)(=O)CC2CC2)cc1)Nc1ccc(-c2ccccc2)c(Oc2ccccc2)c1 [Example 1, 2-(4-cyclopropylmethanesulfonylphenyl)-N-(3-phenoxy-4-phenylphenyl)acetamide] | ≤ 1000
O=C(Cc1ccc(S(=O)(=O)CC2CC2)cc1)Nc1ccc(-n2cncn2)cc1 [Example 46, 2-(4-cyclopropylmethanesulfonylphenyl)-N-[4-(1H-1,2,4-triazol-1-yl)phenyl]acetamide] | ≤ 1000
Cc1cnn(-c2ccc(NC(=O)Cc3ccc(S(=O)(=O)CC4CC4)cc3)cc2)c1 [Example 42, 2-(4-cyclopropylmethanesulfonylphenyl)-N-[4-(4-methyl-1H-pyrazol-1-yl)phenyl]acetamide] | ≤ 1000
O=C(Cc1ccc(S(=O)(=O)CC2CC2)cc1)Nc1nc(-c2cccc(Cl)c2)c(C(=O)c2ccc(Cl)cc2)s1 [Example 23, N-[5-(4-chlorobenzoyl)-4-(3-chlorophenyl)-1,3-thiazol-2-yl]-2-(4-cyclopropylmethanesulfonylphenyl)acetamide] | ≤ 100
Cc1cc(NC(=O)Cc2ccc(S(=O)(=O)CC3CC3)cc2)ccc1-c1ccccc1OC(F)(F)F [Example 29, 2-(4-cyclopropylmethanesulfonylphenyl)-N-{3-methyl-4-[2-(trifluoromethoxy)phenyl]phenyl}acetamide] | ≤ 100
